target: Full-length inactive AKT1 (Homo sapiens, UniProt P31749); test: Inactive Akt Alpha Screen Assay; format: biochemical; conditions: values not marked with "*"; read-out: Akt1 IC50, (AlphaScreen)
Method in brief: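 AlphaScreen read-out (excitation 640 nm, emission 570 nm) after 90 min incubation at room temperature in the dark. Signal comes from crosstide phosphorylation by AKT1, which was activated by added PDK1, MAPKAPK2, ATP and lipid vesicles, captured via phospho-AKT substrate antibody and streptavidin beads.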

Full-length inactive AKT1, sequence (P31749 whole entry): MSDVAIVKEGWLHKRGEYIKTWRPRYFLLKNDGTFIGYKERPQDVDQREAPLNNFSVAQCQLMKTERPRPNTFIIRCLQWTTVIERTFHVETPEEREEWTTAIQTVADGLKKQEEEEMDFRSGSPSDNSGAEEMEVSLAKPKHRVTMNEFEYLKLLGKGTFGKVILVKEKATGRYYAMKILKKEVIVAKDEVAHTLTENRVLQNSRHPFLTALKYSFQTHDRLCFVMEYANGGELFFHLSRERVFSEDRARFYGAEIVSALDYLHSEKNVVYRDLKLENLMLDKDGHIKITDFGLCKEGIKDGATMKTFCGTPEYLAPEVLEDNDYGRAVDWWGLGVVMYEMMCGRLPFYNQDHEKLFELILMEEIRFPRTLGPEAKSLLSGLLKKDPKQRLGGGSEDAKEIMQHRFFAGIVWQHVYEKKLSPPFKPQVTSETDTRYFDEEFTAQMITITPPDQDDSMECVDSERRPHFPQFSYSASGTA

Row | SMILES | IC50
1 | CC(=O)Nc1ccc(NC(=O)Cc2ccc(-n3c(-c4cccnc4N)nc4cc(-c5cccnc5)cnc43)cc2)cc1 [Example 319, N-(4-acetamidophenyl)-2-(4-(2-(2-aminopyridin-3-yl)-6-(pyridin-3-yl)-3H-imidazo[4,5-b]pyridin-3-yl)phenyl)acetamide] | 22 nM
2 | Nc1ncccc1-c1nc2cc(-c3cccnc3)cnc2n1-c1ccc(CC(=O)Nc2cccc(F)c2)cc1 [Example 320, 2-(4-(2-(2-aminopyridin-3-yl)-6-(pyridin-3-yl)-3H-imidazo[4,5-b]pyridin-3-yl)phenyl)-N-(3-fluorophenyl)acetamide] | 57 nM
3 | Cc1cc2nc(-c3cccnc3N)n(-c3ccc(CNC(=O)c4ccccc4)cc3)c2nc1C [Example 322, N-(4-(2-(2-aminopyridin-3-yl)-5,6-dimethyl-3H-imidazo[4,5-b]pyridin-3-yl)benzyl)benzamide] | 77 nM
4 | CC(=O)Nc1cccc(NC(=O)Cc2ccc(-n3c(-c4cccnc4N)nc4ccc(C)nc43)cc2)c1 [Example 323, N-(3-acetamidophenyl)-2-(4-(2-(2-aminopyridin-3-yl)-5-methyl-3H-imidazo[4,5-b]pyridin-3-yl)phenyl)acetamide] | 150 nM
5 | CC(=O)Nc1cccc(-c2ccc3nc(-c4cccnc4N)n(-c4ccc(CNS(=O)(=O)c5cn(C)cn5)cc4)c3n2)c1 [Example 325, N-(3-(2-(2-aminopyridin-3-yl)-3-(4-((1-methyl-1H-imidazole-4-sulfonamido)methyl)phenyl)-3H-imidazo[4,5-b]pyridin-5-yl)phenyl)acetamide] | 33 nM
6 | CC(=O)Nc1cccc(-c2ccc3nc(-c4cccnc4N)n(-c4ccc(C5(NC(=O)OC(C)(C)C)CCC5)cc4)c3n2)c1 [Example 340, tert-butyl (1-(4-(5-(3-acetamidophenyl)-2-(2-aminopyridin-3-yl)-3H-imidazo[4,5-b]pyridin-3-yl)phenyl)cyclobutyl)carbamate] | 350 nM
7 | CC(=O)Nc1ccc(NC(=O)Cc2ccc(-n3c(-c4cccnc4N)nc4cc(F)cnc43)cc2)cc1 [Example 342, N-(4-acetamidophenyl)-2-(4-(2-(2-aminopyridin-3-yl)-6-fluoro-3H-imidazo[4,5-b]pyridin-3-yl)phenyl)acetamide] | 61 nM
8 | CC(=O)Nc1cccc(NC(=O)Cc2ccc(-n3c(-c4cccnc4N)nc4cc(C)cnc43)cc2)c1 [Example 343, N-(3-acetamidophenyl)-2-(4-(2-(2-aminopyridin-3-yl)-6-methyl-3H-imidazo[4,5-b]pyridin-3-yl)phenyl)acetamide] | 110 nM
9 | Cc1cc2nc(-c3cccnc3N)n(-c3ccc(CNC(=O)c4ccccc4)cc3)c2nc1Cl [Example 346, N-(4-(2-(2-aminopyridin-3-yl)-5-chloro-6-methyl-3H-imidazo[4,5-b]pyridin-3-yl)benzyl)benzamide] | 86 nM
10 | Cc1ccc2nc(-c3cccnc3N)n(-c3ccc(CC(=O)c4ccccc4)cc3)c2n1 [Example 349, 2-(4-(2-(2-aminopyridin-3-yl)-5-methyl-3H-imidazo[4,5-b]pyridin-3-yl)phenyl)-1-phenylethanone] | 180 nM
11 | CC(C)(C)OC(=O)NC1(c2ccc(-n3c(-c4cccnc4N)nc4ccc(-c5ccccc5)nc43)cc2)CCC1 [Example 350, tert-butyl (1-(4-(2-(2-aminopyridin-3-yl)-5-phenyl-3H-imidazo[4,5-b]pyridin-3-yl)phenyl)cyclobutyl)carbamate] | 1400 nM
12 | CC(C)(C)OC(=O)NCc1ccc(-n2c(-c3cccnc3N)nc3ccc(-c4cn[nH]c4)nc32)cc1 [Example 354, tert-butyl 4-(2-(2-aminopyridin-3-yl)-5-(1H-pyrazol-4-yl)-3H-imidazo[4,5-b]pyridin-3-yl)benzylcarbamate] | 150 nM
13 | Nc1ncccc1-c1nc2cc(-c3ccccc3)cnc2n1-c1ccc(C2(N)CCC2)cc1 [Example 358, 3-(3-(4-(1-aminocyclobutyl)phenyl)-6-phenyl-3H-imidazo[4,5-b]pyridin-2-yl)pyridin-2-amine] | 55 nM
14 | CC(=O)Nc1cccc(-c2cnc3c(c2)nc(-c2cccnc2N)n3-c2ccc(C3(N)CCC3)cc2)c1 [Example 359, N-(3-(3-(4-(1-aminocyclobutyl)phenyl)-2-(2-aminopyridin-3-yl)-3H-imidazo[4,5-b]pyridin-6-yl)phenyl)acetamide] | 57 nM
15 | COC(=O)C1(c2ccc(-n3c(-c4cccnc4N)nc4cc(-c5ccccc5)cnc43)cc2)CCC1 [Example 361, methyl 1-(4-(2-(2-aminopyridin-3-yl)-6-phenyl-3H-imidazo[4,5-b]pyridin-3-yl)phenyl)cyclobutanecarboxylate] | 360 nM

Further lines, results first:

Row | IC50 | SMILES
16 | 76 nM | Cc1cc2nc(-c3cccnc3N)n(-c3ccc(CNC(=O)c4cccc(F)c4)cc3)c2nc1C [Example 321, N-(4-(2-(2-aminopyridin-3-yl)-5,6-dimethyl-3H-imidazo[4,5-b]pyridin-3-yl)benzyl)-3-fluorobenzamide]
17 | 650 nM | N#Cc1ccc(-c2ccc3nc(-c4cccnc4N)n(-c4ccc(CNC(=O)c5cccc(F)c5)cc4)c3n2)cc1 [Example 326, N-(4-(2-(2-aminopyridin-3-yl)-5-(4-cyanophenyl)-3H-imidazo[4,5-b]pyridin-3-yl)benzyl)-3-fluorobenzamide]
18 | 91 nM | Nc1ccccc1-c1ccc2nc(-c3cccnc3N)n(-c3ccc(CNC(=O)c4cccc(F)c4)cc3)c2n1 [Example 327, N-(4-(5-(2-aminophenyl)-2-(2-aminopyridin-3-yl)-3H-imidazo[4,5-b]pyridin-3-yl)benzyl)-3-fluorobenzamide]
19 | 47 nM | Nc1ncccc1-c1nc2ccc(-c3ccccc3O)nc2n1-c1ccc(CNC(=O)c2cccc(F)c2)cc1 [Example 328, N-(4-(2-(2-aminopyridin-3-yl)-5-(2-hydroxyphenyl)-3H-imidazo[4,5-b]pyridin-3-yl)benzyl)-3-fluorobenzamide]
20 | 360 nM | Nc1ncccc1-c1nc2ccc(-c3ccc(F)cc3)nc2n1-c1ccc(CNC(=O)c2cccc(F)c2)cc1 [Example 329, N-(4-(2-(2-aminopyridin-3-yl)-5-(4-fluorophenyl)-3H-imidazo[4,5-b]pyridin-3-yl)benzyl)-3-fluorobenzamide]
21 | 120 nM | Nc1ncccc1-c1nc2ccc(-c3ccc(O)cc3)nc2n1-c1ccc(CNC(=O)c2cccc(F)c2)cc1 [Example 330, N-(4-(2-(2-aminopyridin-3-yl)-5-(4-hydroxyphenyl)-3H-imidazo[4,5-b]pyridin-3-yl)benzyl)-3-fluorobenzamide]
22 | 420 nM | Nc1ncccc1-c1nc2ccc(-c3ccc4cc[nH]c4c3)nc2n1-c1ccc(CNC(=O)c2cccc(F)c2)cc1 [Example 331, N-(4-(2-(2-aminopyridin-3-yl)-5-(1H-indol-6-yl)-3H-imidazo[4,5-b]pyridin-3-yl)benzyl)-3-fluorobenzamide]
23 | 160 nM | Nc1ncccc1-c1nc2ccc(-c3ccc4c(c3)OCCO4)nc2n1-c1ccc(CNC(=O)c2cccc(F)c2)cc1 [Example 332, N-(4-(2-(2-aminopyridin-3-yl)-5-(2,3-dihydro-benzo[b][1,4]dioxin-6-yl)-3H-imidazo[4,5-b]pyridin-3-yl)benzyl)-3-fluorobenzamide]
24 | 36 nM | Nc1ncccc1-c1nc2ccc(-c3ccncc3)nc2n1-c1ccc(CNC(=O)c2cccc(F)c2)cc1 [Example 334, N-(4-(2-(2-aminopyridin-3-yl)-5-(pyridin-4-yl)-3H-imidazo[4,5-b]pyridin-3-yl)benzyl)-3-fluorobenzamide]
25 | 182 nM | N#Cc1cccc(-c2ccc3nc(-c4cccnc4N)n(-c4ccc(CNC(=O)c5cccc(F)c5)cc4)c3n2)c1 [Example 335, N-(4-(2-(2-aminopyridin-3-yl)-5-(3-cyanophenyl)-3H-imidazo[4,5-b]pyridin-3-yl)benzyl)-3-fluorobenzamide]
26 | 320 nM | COC(=O)c1ccc(-c2ccc3nc(-c4cccnc4N)n(-c4ccc(CNC(=O)c5cccc(F)c5)cc4)c3n2)cc1 [Example 336, methyl 4-(2-(2-aminopyridin-3-yl)-3-(4-((3-fluorobenzamido)methyl)phenyl)-3H-imidazo[4,5-b]pyridin-5-yl)benzoate]
27 | 82 nM | Nc1ncccc1-c1nc2ccc(-c3cncnc3)nc2n1-c1ccc(CNC(=O)c2cccc(F)c2)cc1 [Example 337, N-(4-(2-(2-aminopyridin-3-yl)-5-(pyrimidin-5-yl)-3H-imidazo[4,5-b]pyridin-3-yl)benzyl)-3-fluorobenzamide]
28 | 32 nM | CNC(=O)Cc1ccc(-n2c(-c3cccnc3N)nc3ccc(-c4cccc(NC(C)=O)c4)nc32)cc1 [Example 341, 2-(4-(5-(3-acetamidophenyl)-2-(2-aminopyridin-3-yl)-3H-imidazo[4,5-b]pyridin-3-yl)phenyl)-N-methylacetamide]
29 | 23 nM | CC(=O)Nc1cccc(-c2nc3c(cc2C)nc(-c2cccnc2N)n3-c2ccc(CNC(=O)c3ccccc3)cc2)c1 [Example 344, N-(4-(5-(3-acetamidophenyl)-2-(2-aminopyridin-3-yl)-6-methyl-3H-imidazo[4,5-b]pyridin-3-yl)benzyl)benzamide]
30 | 44 nM | Cc1cc2nc(-c3cccnc3N)n(-c3ccc(CNC(=O)c4ccccc4)cc3)c2nc1-c1ccccc1 [Example 345, N-(4-(2-(2-aminopyridin-3-yl)-6-methyl-5-phenyl-3H-imidazo[4,5-b]pyridin-3-yl)benzyl)benzamide]
31 | 54 nM | CC(=O)Nc1cccc(C(=O)NCc2ccc(-n3c(-c4cccnc4N)nc4cc(C)c(C)nc43)cc2)c1 [Example 347, 3-acetamido-N-(4-(2-(2-aminopyridin-3-yl)-5,6-dimethyl-3H-imidazo[4,5-b]pyridin-3-yl)benzyl)benzamide]
32 | 270 nM | CC(C)(C)OC(=O)NCc1ccc(-n2c(-c3cccnc3N)nc3ccc(-c4ccccc4)nc32)cc1 [Example 355, tert-butyl 4-(2-(2-aminopyridin-3-yl)-5-phenyl-3H-imidazo[4,5-b]pyridin-3-yl)benzylcarbamate]
33 | 27 nM | NCc1ccc(-n2c(-c3cccnc3N)nc3ccc(-c4cccc(C(=O)O)c4)nc32)cc1 [Example 357, 3-(3-(4-(aminomethyl)phenyl)-2-(2-aminopyridin-3-yl)-3H-imidazo[4,5-b]pyridin-5-yl)benzoic acid]

From patent US8501770B2 (ArQule, Inc., priority 2009, dated 2013)
